In patent US20140171427A1, “Heterocyclic chromene-spirocyclic piperidine amides as modulators of ion channels” (VERTEX PHARMACEUTICALS INCORPORATED, priority 2010, published 2014):

Each compound was assayed against human NaV subtype (assay: E-VIPR optical membrane potential assay with electrical stimulation). Conditions: active against one or more sodium channels; assay and NaV subtype not specified for Table 3; read-out: Binned Activity Data (IC50).
human NaV subtype, sequence (Q15858 whole entry): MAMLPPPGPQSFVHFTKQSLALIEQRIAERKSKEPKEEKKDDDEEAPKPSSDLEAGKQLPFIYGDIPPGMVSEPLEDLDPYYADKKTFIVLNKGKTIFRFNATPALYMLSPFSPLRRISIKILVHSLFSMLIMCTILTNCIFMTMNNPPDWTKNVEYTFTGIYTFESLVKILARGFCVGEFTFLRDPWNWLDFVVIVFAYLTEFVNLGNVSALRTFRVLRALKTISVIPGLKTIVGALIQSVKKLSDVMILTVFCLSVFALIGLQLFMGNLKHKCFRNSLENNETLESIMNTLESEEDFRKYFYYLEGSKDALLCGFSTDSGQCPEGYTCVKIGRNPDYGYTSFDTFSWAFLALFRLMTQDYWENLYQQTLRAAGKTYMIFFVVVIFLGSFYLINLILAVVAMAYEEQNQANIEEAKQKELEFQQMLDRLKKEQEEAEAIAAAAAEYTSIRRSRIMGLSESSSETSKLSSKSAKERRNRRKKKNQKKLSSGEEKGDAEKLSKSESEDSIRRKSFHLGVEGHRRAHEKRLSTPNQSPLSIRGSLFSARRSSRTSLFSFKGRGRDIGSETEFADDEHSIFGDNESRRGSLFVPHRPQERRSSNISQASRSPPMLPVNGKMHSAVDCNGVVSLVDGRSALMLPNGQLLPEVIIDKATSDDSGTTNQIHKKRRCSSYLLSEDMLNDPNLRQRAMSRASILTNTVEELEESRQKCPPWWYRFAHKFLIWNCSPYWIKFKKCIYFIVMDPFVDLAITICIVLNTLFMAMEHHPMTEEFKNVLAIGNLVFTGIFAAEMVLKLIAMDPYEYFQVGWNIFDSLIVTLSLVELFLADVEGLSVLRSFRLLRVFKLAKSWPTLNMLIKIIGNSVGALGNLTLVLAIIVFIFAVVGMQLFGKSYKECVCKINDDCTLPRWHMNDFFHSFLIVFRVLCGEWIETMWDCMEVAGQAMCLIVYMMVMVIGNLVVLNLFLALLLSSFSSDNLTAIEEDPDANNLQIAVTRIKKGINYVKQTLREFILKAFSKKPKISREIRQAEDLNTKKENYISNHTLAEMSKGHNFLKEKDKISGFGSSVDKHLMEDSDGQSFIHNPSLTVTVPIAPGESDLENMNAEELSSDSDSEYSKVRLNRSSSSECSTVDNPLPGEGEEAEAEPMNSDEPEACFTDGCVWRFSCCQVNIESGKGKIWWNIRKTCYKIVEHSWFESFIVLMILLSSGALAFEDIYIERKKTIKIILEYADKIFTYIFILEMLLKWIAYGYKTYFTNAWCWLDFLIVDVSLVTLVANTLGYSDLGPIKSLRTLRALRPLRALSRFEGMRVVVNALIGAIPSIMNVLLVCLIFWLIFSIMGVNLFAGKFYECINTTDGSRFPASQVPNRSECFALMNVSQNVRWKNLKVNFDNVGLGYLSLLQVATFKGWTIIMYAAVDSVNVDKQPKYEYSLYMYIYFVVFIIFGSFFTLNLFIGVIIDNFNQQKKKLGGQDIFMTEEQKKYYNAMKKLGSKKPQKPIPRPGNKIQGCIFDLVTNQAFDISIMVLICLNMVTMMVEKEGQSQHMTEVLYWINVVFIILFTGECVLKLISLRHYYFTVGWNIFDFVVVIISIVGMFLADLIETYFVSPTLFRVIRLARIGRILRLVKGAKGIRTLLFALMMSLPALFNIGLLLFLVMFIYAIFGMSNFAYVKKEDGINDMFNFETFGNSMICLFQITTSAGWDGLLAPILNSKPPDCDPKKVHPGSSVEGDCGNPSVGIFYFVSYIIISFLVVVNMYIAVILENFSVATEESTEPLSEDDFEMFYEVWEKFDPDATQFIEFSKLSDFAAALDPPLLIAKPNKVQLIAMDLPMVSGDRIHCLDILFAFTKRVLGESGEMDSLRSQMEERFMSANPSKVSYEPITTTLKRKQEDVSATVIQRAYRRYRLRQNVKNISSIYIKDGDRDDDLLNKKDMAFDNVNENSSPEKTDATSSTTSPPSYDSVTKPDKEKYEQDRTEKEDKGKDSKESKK
Type: cell-based
Excerpt: E-VIPR Optical Membrane Potential Assay Method with Electrical Stimulation
Sodium channels are voltage-dependent proteins that can be activated by inducing membrane voltage changes by applying electric fields. The electrical stimulation instrument and methods of use are described in Ion Channel Assay Methods PCT/US01/21652, herein incorporated by reference and are referred to as E-VIPR. The instrument comprises a microtiter plate handler, an optical system for exciting the coumarin dye while simultaneously recording the coumarin and oxonol emissions, a waveform generator, a current- or voltage-controlled amplifier, and a device for inserting electrodes in well. Under integrated computer control, this instrument passes user-programmed electrical stimulus protocols to cells within the wells of the microtiter plate.
24 hours before the assay on E-VIPR, HEK cells expressing human NaV subtype, like NaV 1.7, are seeded in 384-well poly-lysine coated plates at 15,000-20,000 cells per well. Other subtypes are performed in an analogous mode in a cell line expressing the NaV of interest. HEK cells are grown in media (exact composition is specific to each cell type and NaV subtype) supplemented with 10% FBS (Fetal Bovine Serum, qualified; GibcoBRL #16140-071) and 1% Pen-Strep (Penicillin-Streptomycin; GibcoBRL #15140-122). Cells are grown in vented cap flasks, in 90% humidity and 10% CO2, to 100% confluence. They are usually split by trypsinization 1:10 or 1:20, depending on scheduling needs, and grown for 2-3 days before the next split.
100 mg/mL Pluronic F-127 (Sigma #P2443), in dry DMSO
Compound Plates: 384-well round bottom plate, e.g. Corning 384-well Polypropylene Round Bottom #3656
Cell Plates: 384-well tissue culture treated plate, e.g. Greiner #781091-1B
Bath1 buffer. Glucose 10 mM (1.8 g/L), Magnesium Chloride (Anhydrous), 1 mM (0.095 g/L), Calcium Chloride, 2 mM (0.222 g/L), HEPES 10 mM (2.38 g/L), Potassium Chloride, 4.5 mM (0.335 g/L), Sodium Chloride 160 mM (9.35 g/L).
Hexyl Dye Solution: Bath1 Buffer+0.5% β-cyclodextrin (make this prior to use, Sigma #C4767), 8 μM CC2-DMPE+DiSBAC6(3). To make the solution Add volume of 10% Pluronic F127 stock equal to volumes of CC2-DMPE+DiSBAC6(3). The order of preparation is first mix Pluronic and CC2-DMPE, then add DiSBAC6(3) while vortexing, then add Bath1+β-Cyclodextrin.
1) Pre-spot compounds (in neat DMSO) into compound plates. Vehicle control (neat DMSO), the positive control (20 mM DMSO stock tetracaine, 125 μM final in assay) and test compounds are added to each well at 160× desired final concentration in neat DMSO. Final compound plate volume will be 80 μL (80-fold intermediate dilution from 1 μL DMSO spot; 160-fold final dilution after transfer to cell plate). Final DMSO concentration for all wells in assay is 0.625%.
2) Prepare Hexyl Dye Solution.
3) Prepare cell plates. On the day of the assay, medium is aspirated and cells are washed three times with 100 μL of Bathl Solution, maintaining 25 μL residual volume in each well.
4) Dispense 25 μL per well of Hexyl Dye Solution into cell plates. Incubate for 20-35 minutes at room temp or ambient conditions.
5) Dispense 80 μL per well of Bathl into compound plates. Acid Yellow-17 (1 mM) is added and Potassium Chloride can be altered from 4.5 to 20 mM depending on the NaV subtype and assay sensitivity.
6) Wash cell plates three times with 100 μL per well of Bathl, leaving 25 μL of residual volume. Then transfer 25 uL per well from Compound Plates to Cell Plates. Incubate for 20-35 minutes at room temp/ambient condition
7) Read Plate on E-VIPR. Use the current-controlled amplifier to deliver stimulation wave pulses for typically 9 seconds and a scan rate of 400 Hz. A pre-stimulus recording is performed for 0.5 seconds to obtain the un-stimulated intensities baseline. The stimulatory waveform is applied for 9 seconds followed by 0.5 seconds of post-stimulation recording to examine the relaxation to the resting state. […]
`Cc1cc(C(=O)N2CCC3(CC2)Oc2ccccc2-n2c(C#N)ccc23)ccc1[C@@](C)(O)CO` [Compound 54] showed an IC50 of less than 2 µM. `COC(=O)C(C)(C)c1ccc(C(=O)N2CCC3(CC2)Oc2ccccc2-c2c3cnn2C)cc1OC` [Compound 403] gave an IC50 of less than 2 µM. In the case of `N#Cc1ccc2n1-c1ccccc1OC21CCN(C(=O)c2ccc(C(F)(F)F)cc2)CC1` [Compound 481], the IC50 is reported as greater than 5 µM. Work on `COc1cc(C(=O)N2CCC3(CC2)Oc2cc(F)ccc2-n2cccc23)ccc1OC[C@H](O)CO` [Compound 606] yielded an IC50 of less than 2 µM. `C[C@](O)(CO)c1ccc(C(=O)N2CCC3(CC2)Oc2ccccc2-n2c(C(F)(F)F)ccc23)cc1` [Compound 640] gave an IC50 of less than 2 µM. With `COc1cc(C(=O)N2CCC3(CC2)Oc2ccccc2-n2c(C#N)ccc23)ccc1OC[C@@H](O)CO` [Compound 680] the IC50 was less than 2 µM.
